Experimental data taken from PubChem BioAssay AID328 (DTP/NCI, 2004).
Values joined by “and” are separate entries in the source; they are usually repeats but may differ in a detail not shown here. Identical values can stand only once. Inconclusive results and toxic doses are left out.

Tested on: BDF1 mice, P388 leukemia ip, median survival T/C
Assay: NCI In Vivo Anticancer Drug Screen. Data for tumor model P388 Leukemia (intraperitoneal) in B6D2F1 (BDF1) mice
Conditions: endpoint: median survival time, higher = longer survival
Summary of the method: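 Each value expresses how treatment altered survival: treated-mouse outcome over vehicle-mouse outcome, both groups bearing the transplanted tumour.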

[1] = dose: 100.0 mg/kg/injection, schedule: Q04DX003 (ip), vehicle: saline with Tween-80
[2] = dose: 200.0 mg/kg/injection, schedule: Q04DX003 (ip), vehicle: saline with Tween-80
[3] = dose: 200.0 mg/kg/injection, schedule: Q04DX003 (ip), vehicle: Klucel (hydroxypropylcellulose) (HPC)
[4] = dose: 400.0 mg/kg/injection, schedule: Q04DX003 (ip), vehicle: Klucel (hydroxypropylcellulose) (HPC)
[5] = dose: 25.0 mg/kg/injection, schedule: Q01DX009 (ip), vehicle: saline with Tween-80
[6] = dose: 50.0 mg/kg/injection, schedule: Q04DX003 (ip), vehicle: saline with Tween-80
[7] = dose: 25.0 mg/kg/injection, schedule: Q01DX009 (ip), vehicle: saline
[8] = dose: 50.0 mg/kg/injection, schedule: Q01DX009 (ip), vehicle: saline
[9] = dose: 400.0 mg/kg/injection, schedule: Q04DX003 (ip), vehicle: saline with Tween-80
[10] = dose: 50.0 mg/kg/injection, schedule: Q01DX009 (ip), vehicle: saline with Tween-80
[11] = dose: 100.0 mg/kg/injection, schedule: Q01DX009 (ip), vehicle: saline with Tween-80
[12] = dose: 200.0 mg/kg/injection, schedule: Q01DX009 (ip), vehicle: saline with Tween-80

In the case of O=C(O)C1(C(=O)O)CCC2(CCCCC2)CC1, the T/C (dose: 3.12 mg/kg/injection, schedule: Q04DX003 (ip), vehicle: water) is reported as 98 % of control, the T/C (dose: 6.25 mg/kg/injection, schedule: Q01DX009 (ip), vehicle: water) is reported as 110 % of control and the T/C (dose: 6.25 mg/kg/injection, schedule: Q04DX003 (ip), vehicle: water) is reported as 102 % of control. For the same molecule, the T/C (dose: 12.5 mg/kg/injection, schedule: Q01DX009 (ip), vehicle: water) was 94 % of control, the T/C (dose: 12.5 mg/kg/injection, schedule: Q04DX003 (ip), vehicle: water) was 102 % of control and the T/C (dose: 25.0 mg/kg/injection, schedule: Q01DX009 (ip), vehicle: water) was 103 % of control. The T/C (dose: 25.0 mg/kg/injection, schedule: Q04DX003 (ip), vehicle: water) was 101 % of control and 116 % of control, the T/C (dose: 50.0 mg/kg/injection, schedule: Q01DX009 (ip), vehicle: water) was 100 % of control and the T/C (dose: 50.0 mg/kg/injection, schedule: Q04DX003 (ip), vehicle: water) was 101 % of control and 103 % of control. The T/C (dose: 100.0 mg/kg/injection, schedule: Q04DX003 (ip), vehicle: water) was 90 % of control.
For COC12C(COC(N)=O)C3=C(C(=O)C(C)=C(N)C3=O)N1CC1C2N1C (stereo not given), the T/C (dose: 2.0 mg/kg/injection, schedule: Q01DX009 (ip), vehicle: saline) was 163 % of control, the T/C (dose: 2.0 mg/kg/injection, schedule: Q01DX010 (ip), vehicle: saline) was 175 % of control and the T/C (dose: 4.0 mg/kg/injection, schedule: Q01DX009 (ip), vehicle: saline) was 179 % of control. For the same molecule, the T/C (dose: 4.0 mg/kg/injection, schedule: Q01DX010 (ip), vehicle: saline) was 190 % of control, the T/C (dose: 8.0 mg/kg/injection, schedule: Q01DX009 (ip), vehicle: saline) was 198 % of control and the T/C (dose: 8.0 mg/kg/injection, schedule: Q01DX010 (ip), vehicle: saline) was 240 % of control. The T/C (dose: 16.0 mg/kg/injection, schedule: Q01DX009 (ip), vehicle: saline) was 88 % of control and the T/C (dose: 16.0 mg/kg/injection, schedule: Q01DX010 (ip), vehicle: saline) was 110 % of control.
With OC(CCCCl)CC(O)(C(F)(F)F)C(F)(F)F (stereo not given) the T/C [1] was 100 % of control and the T/C [2] was 109 % of control.
With CC1(C)CC(=O)C2OC2(C)C1 (stereo not given) the T/C (dose: 100.0 mg/kg/injection, schedule: Q01DX009 (ip), vehicle: Klucel (hydroxypropylcellulose) (HPC)) was 100 % of control, the T/C (dose: 100.0 mg/kg/injection, schedule: Q04DX003 (ip), vehicle: Klucel (hydroxypropylcellulose) (HPC)) was 104 % of control and the T/C (dose: 200.0 mg/kg/injection, schedule: Q01DX009 (ip), vehicle: Klucel (hydroxypropylcellulose) (HPC)) was 90 % of control. For the same molecule, the T/C [3] was 95 % of control, the T/C (dose: 400.0 mg/kg/injection, schedule: Q01DX009 (ip), vehicle: Klucel (hydroxypropylcellulose) (HPC)) was 109 % of control and the T/C [4] was 108 % of control.
O=C1NNC(c2ccccc2)C1(Cl)Cl (stereo not given) was tested, and the T/C (dose: 12.5 mg/kg/injection, schedule: Q01DX009 (ip), vehicle: saline with Tween-80) was 114 % of control and the T/C [5] was 99 % of control.
In the case of Nc1c(Br)cc2c(c1Br)Cc1cc(Cl)ccc1-2, the T/C (dose: 6.0 mg/kg/injection, schedule: Q04DX003 (ip), vehicle: Klucel (hydroxypropylcellulose) (HPC)) is reported as 100 % of control, the T/C (dose: 12.0 mg/kg/injection, schedule: Q04DX003 (ip), vehicle: Klucel (hydroxypropylcellulose) (HPC)) is reported as 100 % of control and the T/C (dose: 25.0 mg/kg/injection, schedule: Q01DX009 (ip), vehicle: Klucel (hydroxypropylcellulose) (HPC)) is reported as 100 % of control. The T/C (dose: 25.0 mg/kg/injection, schedule: Q04DX003 (ip), vehicle: Klucel (hydroxypropylcellulose) (HPC)) was 100 % of control, the T/C (dose: 50.0 mg/kg/injection, schedule: Q01DX009 (ip), vehicle: Klucel (hydroxypropylcellulose) (HPC)) was 87 % of control and 90 % of control and 100 % of control and the T/C (dose: 50.0 mg/kg/injection, schedule: Q04DX003 (ip), vehicle: Klucel (hydroxypropylcellulose) (HPC)) was 90 % of control. The T/C [3] was 118 % of control and the T/C [4] was 95 % of control and 104 % of control.
With O=Cc1cc([N+](=O)[O-])ccc1Cl the T/C [6] was 100 % of control, the T/C [1] was 96 % of control and the T/C [2] was 100 % of control.
With CC1(C)O[C@]2(C)CC[C@@H]1[C@@H](O)[C@@H]2N1CCCCC1 the T/C (dose: 50.0 mg/kg/injection, schedule: Q01DX005 (ip), vehicle: saline with Tween-80) was 109 % of control, the T/C (dose: 100.0 mg/kg/injection, schedule: Q01DX005 (ip), vehicle: saline with Tween-80) was 111 % of control and the T/C (dose: 200.0 mg/kg/injection, schedule: Q01DX005 (ip), vehicle: saline with Tween-80) was 97 % of control.
In the case of CCN(CC)CCn1c(=O)c2ccccc2c2ccccc21, the T/C (dose: 12.5 mg/kg/injection, schedule: Q01DX009 (ip), vehicle: saline) is reported as 120 % of control, the T/C [7] is reported as 105 % of control and the T/C [8] is reported as 120 % of control.
In the case of O=C(NCCCCOc1ccc([N+](=O)[O-])cc1Cl)c1ccc(S(=O)(=O)F)cc1, the T/C [6] is reported as 103 % of control, the T/C [1] is reported as 96 % of control and 112 % of control and the T/C [2] is reported as 106 % of control. For the same molecule, the T/C [9] was 90 % of control and 103 % of control.
CCP(=Nc1cc(C(c2ccccc2)(c2ccccc2)c2ccccc2)cc(C(C)(C)C)c1O)(c1ccccc1)c1ccccc1 was tested, and the T/C [10] was 107 % of control, the T/C [11] was 116 % of control and the T/C [12] was 89 % of control.
In the case of CC12CCC3C(CCC4=CC(=O)C(C(O)(C(F)(F)F)C(F)(F)F)CC43C)C1CC(C(O)(C(F)(F)F)C(F)(F)F)C2=O (stereo not given), the T/C (dose: 100.0 mg/kg/injection, schedule: Q01DX001 (sc), vehicle: steriod suspending solution) is reported as 100 % of control, the T/C (dose: 200.0 mg/kg/injection, schedule: Q01DX001 (sc), vehicle: steriod suspending solution) is reported as 100 % of control and the T/C (dose: 400.0 mg/kg/injection, schedule: Q01DX001 (sc), vehicle: steriod suspending solution) is reported as 95 % of control.
In the case of O=C(Oc1ccc([N+](=O)[O-])cc1)c1ccc2ccccc2n1, the T/C [11] is reported as 111 % of control, the T/C [1] is reported as 95 % of control and the T/C [12] is reported as 111 % of control. For the same molecule, the T/C [2] was 109 % of control, the T/C (dose: 400.0 mg/kg/injection, schedule: Q01DX009 (ip), vehicle: saline with Tween-80) was 95 % of control and the T/C [9] was 90 % of control.
For S=P(NCCS)(N1CC1)N1CC1, the T/C [5] was 95 % of control, the T/C [10] was 122 % of control and the T/C [11] was 109 % of control.
In the case of CN1/C(=C/C=C/N=C(C#N)C#N)C(C)(C)c2ccccc21, the T/C [10] is reported as 104 % of control, the T/C [11] is reported as 96 % of control and the T/C [12] is reported as 96 % of control.
In the case of O=S(=O)(O)N(O)c1ccccc1, the T/C (dose: 25.0 mg/kg/injection, schedule: Q01DX001 (ip), vehicle: saline with Tween-80) is reported as 105 % of control, the T/C (dose: 50.0 mg/kg/injection, schedule: Q01DX001 (ip), vehicle: saline with Tween-80) is reported as 102 % of control and the T/C (dose: 100.0 mg/kg/injection, schedule: Q01DX001 (ip), vehicle: saline with Tween-80) is reported as 100 % of control. For the same molecule, the T/C (dose: 200.0 mg/kg/injection, schedule: Q01DX001 (ip), vehicle: saline with Tween-80) was 99 % of control and 105 % of control and the T/C (dose: 400.0 mg/kg/injection, schedule: Q01DX001 (ip), vehicle: saline with Tween-80) was 101 % of control.
C#CCN(C)Cc1ccccc1 was tested, and the T/C (dose: 50.0 mg/kg/injection, schedule: Q01DX010 (ip), vehicle: saline) was 95 % of control, the T/C (dose: 100.0 mg/kg/injection, schedule: Q01DX010 (ip), vehicle: saline) was 100 % of control and the T/C (dose: 200.0 mg/kg/injection, schedule: Q01DX010 (ip), vehicle: saline) was 109 % of control.
In the case of COc1cc2c(cc1OC)C(c1c(-c3c(Cl)cccc3Cl)noc1C)=NCC2, the T/C [10] is reported as 99 % of control, the T/C [11] is reported as 92 % of control and the T/C [12] is reported as 106 % of control.
With NC(=O)CC(NC(=O)CCl)C(=O)O (stereo not given) the T/C [1] was 90 % of control, the T/C [2] was 90 % of control and the T/C [9] was 86 % of control.
For CC(=O)OC1(CSc2ccccc2)CCCCC1, the T/C [10] was 93 % of control.
With OC1CCC(O)C1(Cl)Cl (stereo not given) the T/C [7] was 109 % of control, the T/C [8] was 108 % of control and the T/C (dose: 100.0 mg/kg/injection, schedule: Q01DX009 (ip), vehicle: saline) was 98 % of control.
